Laboratory results published in patent publication US20160362744A1, “Biomarkers of Mineralocorticoid Receptor Activation” (INSERM (Institut National de la Sante et de la Recherche …, priority 2008, published 2016).
Entries after “also recorded” stand apart in the source; their conditions may differ.

Tests used:
[1] = biological target: T1, rat MR (Rattus norvegicus, UniProt P22199); assay: Expression of NGAL mRNA (Q-PCR) in rat cardiomyocyte H9C2 cells stably expressing rat MR; type: cell-based; conditions: for Lipocalin2/NGAL expression, time-course: 10^−8M aldosterone
T1 construct: expressed in transfected cells; host or cells: rat H9C2 cardiomyocyte cells (H9-C2/MR)
T1 sequence (P22199 1-981): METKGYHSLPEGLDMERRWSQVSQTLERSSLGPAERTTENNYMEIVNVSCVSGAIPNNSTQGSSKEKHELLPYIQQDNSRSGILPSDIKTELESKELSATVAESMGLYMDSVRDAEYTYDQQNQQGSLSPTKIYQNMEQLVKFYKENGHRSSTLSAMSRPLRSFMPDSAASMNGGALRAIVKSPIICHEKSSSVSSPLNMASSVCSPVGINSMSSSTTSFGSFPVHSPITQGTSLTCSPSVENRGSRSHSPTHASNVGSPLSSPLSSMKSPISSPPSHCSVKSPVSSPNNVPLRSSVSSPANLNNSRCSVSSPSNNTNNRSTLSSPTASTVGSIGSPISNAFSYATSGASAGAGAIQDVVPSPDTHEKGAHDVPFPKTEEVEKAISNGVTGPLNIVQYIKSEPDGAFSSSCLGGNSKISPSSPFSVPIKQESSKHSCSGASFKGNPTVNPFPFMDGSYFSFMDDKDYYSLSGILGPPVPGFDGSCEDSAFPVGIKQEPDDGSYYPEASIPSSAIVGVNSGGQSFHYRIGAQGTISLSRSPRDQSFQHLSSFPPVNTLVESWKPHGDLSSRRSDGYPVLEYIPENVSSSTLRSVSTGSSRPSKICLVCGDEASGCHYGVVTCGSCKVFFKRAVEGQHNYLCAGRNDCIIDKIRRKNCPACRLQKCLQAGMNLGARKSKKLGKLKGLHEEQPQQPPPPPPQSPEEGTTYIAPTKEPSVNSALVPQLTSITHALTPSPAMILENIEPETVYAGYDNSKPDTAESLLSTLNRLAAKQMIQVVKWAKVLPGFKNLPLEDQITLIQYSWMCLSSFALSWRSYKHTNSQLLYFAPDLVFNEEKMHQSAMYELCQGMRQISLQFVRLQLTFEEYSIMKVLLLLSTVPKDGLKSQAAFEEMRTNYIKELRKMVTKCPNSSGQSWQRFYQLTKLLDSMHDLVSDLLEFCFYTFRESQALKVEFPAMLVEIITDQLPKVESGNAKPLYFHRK
Protocol: Expression of NGAL in a Cellular Model of Rat Cardiomyocyte (H9C2 Cells) Stably Overexpressing with Rat MR
(§1) Quantitative NGAL mRNA expression was analyzed by quantitative PCR (Q-PCR, Light Cycler, Biorad) using forward 5′-[…]-3′ (SEQ ID NO:3) and reverse 5′-[…]-3′ (SEQ ID NO:4) primers on 25 μl of RT-PCR (using the qPCR Core kit for Sybr Green I from Eurogentec) prepared using 2 μg DNA-free total RNA extracted from rat H9-C2/MR cells treated with various concentrations of aldosterone or 10^−8M corticosterone or 10^−6 M MR antagonist RU 28318 or GR antagonist RU 486, alone or in combination.

[2] = biological target: T1, rat MR; assay: Expression of Serpina3 mRNA (Q-PCR) in rat cardiomyocyte H9C2 cells stably overexpressing rat MR; type: cell-based; conditions: for serpina3 induction, time course: Aldosterone 10 nM
Protocol: Expression of Serpina3 in a Cellular Model of Rat Cardiomyocyte (H9C2 Cells) Stably Overexpressing with Rat MR
as §1, with “Serpina3” for “NGAL”, “NO:7)” for “NO:3)”, “NO:8)” for “NO:4)”, “28318,” for “28318 or GR antagonist RU 486,”

[3] = biological target: T2, MR (Mus musculus, UniProt Q8VII8); assay: NGAL expression in uninephrectomized mice with aldosterone infusion and 1% salt (aldo/salt model); type: in vivo; conditions: 3 weeks
T2 construct: from tissue; host or cells: living mice (heart, plasma)
T2 sequence (Q8VII8 1-978): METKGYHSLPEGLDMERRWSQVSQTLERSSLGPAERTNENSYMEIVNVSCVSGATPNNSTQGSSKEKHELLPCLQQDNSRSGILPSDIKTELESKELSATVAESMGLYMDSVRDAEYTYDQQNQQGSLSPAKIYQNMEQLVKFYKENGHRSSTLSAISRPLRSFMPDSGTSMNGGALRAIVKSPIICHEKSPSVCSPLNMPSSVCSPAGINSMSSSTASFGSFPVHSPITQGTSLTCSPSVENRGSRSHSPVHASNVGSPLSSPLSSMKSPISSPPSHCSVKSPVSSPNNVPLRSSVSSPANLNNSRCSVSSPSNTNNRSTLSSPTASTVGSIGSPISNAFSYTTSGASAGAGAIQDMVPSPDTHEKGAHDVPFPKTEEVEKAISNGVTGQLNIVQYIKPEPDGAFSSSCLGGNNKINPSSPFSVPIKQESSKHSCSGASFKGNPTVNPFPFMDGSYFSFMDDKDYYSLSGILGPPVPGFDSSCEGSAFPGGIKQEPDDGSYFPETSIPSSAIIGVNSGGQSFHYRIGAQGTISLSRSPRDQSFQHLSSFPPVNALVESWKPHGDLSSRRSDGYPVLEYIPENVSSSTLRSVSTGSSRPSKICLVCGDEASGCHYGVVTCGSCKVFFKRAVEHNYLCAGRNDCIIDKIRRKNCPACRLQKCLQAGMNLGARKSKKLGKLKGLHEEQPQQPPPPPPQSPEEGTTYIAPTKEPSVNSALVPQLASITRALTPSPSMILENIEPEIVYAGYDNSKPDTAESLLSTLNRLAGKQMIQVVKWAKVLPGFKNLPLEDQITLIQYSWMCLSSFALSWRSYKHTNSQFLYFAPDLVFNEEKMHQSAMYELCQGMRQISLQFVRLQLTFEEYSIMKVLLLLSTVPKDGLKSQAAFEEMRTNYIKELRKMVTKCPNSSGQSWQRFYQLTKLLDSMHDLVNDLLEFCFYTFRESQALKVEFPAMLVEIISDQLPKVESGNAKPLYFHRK
Protocol: Quantitative NGAL mRNA expression was analyzed by quantitative PCR (Q-PCR, Light Cycler, Biorad) using forward 5′-[…]-3′ (SEQ ID NO:1) and Reverse 5′-[…]-3′ (SEQ ID NO:2) primers on 25 μl of RT-PCR (using the qPCR Core kit for Sybr Green I from Eurogentec) prepared using 2 μg DNA-free total RNA extracted from the heart of one, two and three mo-old MR transgenic mice and compared to matched littermates, as well as two mo-old GR transgenic mice (and respective control littermates). Protein expression of NGAL was analyzed in cardiac protein extracts from two mo-old MR mice using a specific NGAL antibody (AF1857, R&D Systems). […]
Quantitative NGAL mRNA expression was also analyzed by Q-PCR in the heart of mice with uninephrectomy and treated with aldosterone infusion (60 μg/kg/j, 0.25 μl/h ALZET minipumps) and 1% salt in the drinking water for 3 weeks (as compared to uninephrectomized-only control mice), and in thoracic aorta from 9 months-old mice with conditional overexpression of the human MR in the endothelium only obtained after appropriate breeding of the MR transgenic mice described above with an endothelial-specific transactivator mice (provided by L. E. Benjamine, Harvard, USA) (Sun et al., 2005) that allowed conditional expression of hMR in the endothelium only. […]

[4] = biological target: T2, MR; assay: Plasma NGAL (ELISA) in db/db mouse model of type II diabetes treated with MR antagonist; type: in vivo, mice

**Q.** How did the “Effect on aldosterone-induced increase of Lipocalin2/NGAL expression” value ([1]; antagonist (10^−6 M) added to 10^−8M aldosterone) turn out when `CCC[C@@H]1CC2=CC(=O)CC[C@]2(C)[C@H]2CC[C@@]3(C)[C@@H](CC[C@@]3(O)CCC(=O)[O-])[C@H]12.[K+]` [RU 28318] was run?
**A.** Its value is “prevented”.

**Q.** And the “Effect on corticosterone-induced increase of Lipocalin2/NGAL expression” value ([1]; antagonist (10^−6 M) with 10^−8M corticosterone)?
**A.** The value was “prevented”.

**Q.** And the “Effect on corticosterone induction of SERPINA3 mRNA” value ([2]; H9C2/MR+ cells, MR antagonist with 10 nM corticosterone)?
**A.** Its value is “prevented”.

**Q.** And the “Effect on aldosterone induction of SERPINA3 mRNA” value ([2]; H9C2/MR+ cells, in presence of MR antagonist with 1 nM aldosterone)?
**A.** Its value is “suppressed”.

**Q.** `C[C@]12CCC(=O)C=C1CC[C@@H]1[C@@H]2[C@@H](O)C[C@]2(C=O)[C@@H](C(=O)CO)CC[C@@H]12` [aldosterone] was tested. Which Lipocalin2/NGAL expression ([1]; 10^−8M aldosterone for 24 h) did it give?
**A.** The Lipocalin2/NGAL expression was “increased”.

**Q.** And the “Lipocalin2/NGAL expression, time-course” value ([1]; after 24 h)?
**A.** The value was “induced”.

**Q.** What about the “Lipocalin2/NGAL expression, time-course” value ([1]; after 48 h) of the same compound?
**A.** The value was “remained sustained”.

**Q.** And the “Lipocalin2/NGAL expression, dose-response” value ([1]; increasing concentrations of aldosterone)?
**A.** Its value is “stimulated by increasing concentrations”.

**Q.** And the “expression of serpina3 (in words)” value ([2]; H9C2/MR cells, 1 nM aldosterone for 24 h)?
**A.** Its value is “increased”.

**Q.** What about the “Serpina3 expression (in words)” value ([2]; H9C2/MR cells, 10 nM aldosterone, 24 h exposure) of the same compound?
**A.** Its value is “highly induced”.

**Q.** And the “serpina3 induction, time course” value ([2]; H9C2/MR cells, after 10 hours)?
**A.** The value was “induced”.

**Q.** And the “serpina3 induction, time course” value ([2]; H9C2/MR cells, after 24 h)?
**A.** The value was 15 ×.

**Q.** And the “Serpina3 induction, dose-response” value ([2]; H9C2/MR cells, aldosterone, starting with 1 nM)?
**A.** Its value is “dose-dependent; also recorded: Concentration dependent induction”.

**Q.** What about the “SERPINA3 mRNA induction” value ([2]; H9C2/MR+ cells, aldosterone 1 nM for 24 hrs) of the same compound?
**A.** Its value is “about 8 fold”.

**Q.** And the “Lipocalin2/NGAL expression in the heart” value ([3]; 60 μg/kg/j infusion, quantitative PCR)?
**A.** The value was “increased”.

**Q.** What about the “plasma levels of lipocalin2/NGAL” value ([3]; ELISA) of the same compound?
**A.** The value was “increased”.

**Q.** `C[C@]12CCC(=O)C=C1C=C[C@@H]1[C@@H]2CC[C@@]2(C)[C@H]1CC[C@@]2(O)CCC(=O)O` [canrenoate] was tested. Which “Effect on plasma levels of lipocalin2/NGAL in control mice” value ([4]; control mice, 17 weeks treatment) did it give?
**A.** The value was “no effect”.

**Q.** What about the “Effect on increase in plasma levels of lipocalin2/NGAL in db/db mice” value ([4]; db/db mice, 17 weeks in vivo treatment, 100 mg/Kg/day in drinking water) of the same compound?
**A.** The value was “prevented”.

**Q.** How did the Lipocalin2/NGAL expression ([1]; 10^−8M corticosterone) turn out when `C[C@]12C[C@H](O)[C@H]3[C@@H](CCC4=CC(=O)CC[C@@]43C)[C@@H]1CC[C@@H]2C(=O)CO` [corticosterone] was run?
**A.** The Lipocalin2/NGAL expression was “stimulated”.

**Q.** What about the “SERPINA3 mRNA expression” value ([2]; H9C2/MR cells, 10 nM corticosterone, 24 h) of the same compound?
**A.** The value was “increased”.
